Results on 28 compounds are retold here after patent US20260256797A1, “NOVEL INDENONE DERIVATIVES AND USES THEREOF” (AMYLOID SOLUTION INC., priority 2022, published 2026).

As usually defined, the EC50 is the midpoint of the concentration-response curve. Read a high EC50 as a need for much substance.

Assay [1] deals with Tau-RD3 (Tau repeat domain 3) (Homo sapiens, UniProt P10636). The assay is described as follows: Tau disaggregation test by thioflavin-T assay. Format: biochemical. The following applies: 35 μM Tau-RD3 aggregated 24 hours, then compound 0-500 μM for 48 hours at 37° C. The procedure:
(§1) Each compound was dissolved in DMSO to a concentration of 10 mM. Subsequently, the compound was diluted with 6% DMSO (in DW) and used.
(§2) Specifically, amyloid-beta and tau solutions were prepared by dissolving Aβ1-42 or Tau-RD3 (Tau repeat domain 3) monomer in DMSO to a concentration of 10 mM. Thereafter, each solution was diluted with DW to a concentration of 100 μM and stored on ice. Meanwhile, thioflavin-T was dissolved in 50 mM glycine buffer (pH 8.5) to a concentration of 5 mM. Thereafter, the resulting solution was diluted with 50 mM glycine buffer (pH 8.5) to a concentration of 5 μM and stored in a dark room while light was blocked.
(§3) Each of the amyloid-beta and tau solutions prepared according to Experimental Example 1.1 was added to a 1.5 mL microcentrifuge tube to a concentration of 50 μM or 35 µM, and then a reaction was allowed to occur therebetween at 37° C. for 24 hours. Each of the 1.5 mL microcentrifuge tubes in which amyloid-beta aggregation and tau aggregation had been completed was treated with each compound at a concentrated of 500 μM to 0 μM through serial dilution, and then a further reaction was allowed to occur therebetween at 37° C. for 48 hours. 25 μL of the reaction solution in which the reaction had been completed was added to each well of a 96-well plate for fluorescence analysis, and 75 μL of the previously prepared thioflavin-T solution was added to each well. After a reaction was allowed to occur at room temperature in the dark for 5 minutes, fluorescence values were measured at excitation 450 nm and emission 485 nm by using a multi-mode microplate reader.
(§4) The fluorescence value of a group (control) treated with amyloid-beta or tau alone, followed by aggregation for 72 hours was converted into a percentage value and expressed as 100, and amyloid-beta and tau aggregates, in which aggregation had been completed upon reaction for 24 hours, were treated with each compound at each concentration and a further reaction was allowed to occur therebetween for 48 hours, and then fluorescence values thereof were measured and converted into relative values. The results thereof are illustrated in FIGS. 1 to 6 and 7 to 12. In addition, EC50 values of the compounds of the present disclosure for amyloid-beta and tau, respectively are summarized in Table 1.

Another assay concerns the target T1, Aβ1-42 (Homo sapiens, UniProt P05067).
T1 construct: dissolving Aβ1-42 or Tau-RD3 (Tau repeat domain 3) monomer in DMSO
The experiment in a line: Amyloid-beta (Aβ) disaggregation test by thioflavin-T assay. Format: biochemical. The following applies: 50 μM Aβ1-42 aggregated 24 hours, then compound 0-500 μM for 48 hours at 37° C. As to the method: as §1, §2, §3, §4

Tau-RD3 (Tau repeat domain 3), sequence (P10636 623-653 limits assumed): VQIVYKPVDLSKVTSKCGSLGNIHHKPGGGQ
T1 sequence (P05067 672-713 limits assumed): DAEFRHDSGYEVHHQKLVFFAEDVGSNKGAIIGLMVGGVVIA

Consider `Cc1ncsc1C1=C(c2cccnc2)C(=O)c2cc(OCCCc3ccccc3)ccc21` [Compound 1, 3-(4-methylthiazol-5-yl)-6-(3-phenylpropoxy)-2-(pyridin-3-yl)-1H-inden-1-one], for which the EC50 worked out at 19.2 µM in assay [1] and 8.2 µM on Aβ1-42.

On to `Cc1ncsc1C1=C(c2ccccc2CC#N)C(=O)c2cc(OCCCc3ccccc3)ccc21` [Compound 2, 2-(2-(3-(4-methylthiazol-5-yl)-1-oxo-6-(3-phenylpropoxy)-1H-inden-2-yl)phenyl) acetonitrile], for which the concentration giving a half-maximal response (EC50) in assay [1] came to 321 µM; at Aβ1-42 it was 92.9 µM.

On to `Cc1ncsc1C1=C(Br)C(=O)c2cc(OCCCc3ccccc3)ccc21` [Compound 3, 2-bromo-3-(4-methylthiazol-5-yl)-6-(3-phenylpropoxy)-1H-inden-1-one], for which the EC50 in assay [1] came out at 8.5 µM; on Aβ1-42, 3.8 µM.

For the compound `Cc1scnc1C1=C(c2cccnc2)C(=O)c2cc(OCCCN3CCOCC3)ccc21` [Compound 4, 3-(5-methylthiazol-4-yl)-6-(3-morpholinopropoxy)-2-(pyridin-3-yl)-1H-inden-1-one], the values for the EC50 (in assay [1]; on Aβ1-42) were 156 µM and 75 µM, respectively.

As to `Cc1scnc1C1=C(Br)C(=O)c2cc(OCCCN3CCOCC3)ccc21` [Compound 5, 2-bromo-3-(5-methylthiazol-4-yl)-6-(3-morpholinopropoxy)-1H-inden-1-one], the EC50 in assay [1] stood at 344 µM; on Aβ1-42, 65.6 µM.

Regarding `O=C1C(c2cccnc2)=C(c2cccs2)c2ccc(OCCCc3ccccc3)cc21` [Compound 6, 6-(3-phenylpropoxy)-2-(pyridin-3-yl)-3-(thiophen-2-yl)-1H-inden-1-one], the results for the concentration giving a half-maximal response (EC50) (in assay [1]; at Aβ1-42) were 16.2 µM and 3.2 µM, respectively.

As to `Cc1scnc1C1=C(c2cccnc2)C(=O)c2cc(OCCCc3ccccc3)ccc21` [Compound 8, 3-(5-methylthiazol-4-yl)-6-(3-phenylpropoxy)-2-(pyridin-3-yl)-1H-inden-1-one], the EC50 in assay [1] is 4.2 µM; on Aβ1-42 it was 1.9 µM.

In the case of `O=C1C(c2cccnc2)=C(c2ccoc2)c2ccc(OCCCc3ccccc3)cc21` [Compound 9, 3-(furan-3-yl)-6-(3-phenylpropoxy)-2-(pyridin-3-yl)-1H-inden-1-one], the EC50 in assay [1] was found to be 53.6 µM; at Aβ1-42 it was 19.1 µM.

As to `Cc1ncsc1C1=C(c2ccccc2)C(=O)c2cc(OCCCc3ccccc3)ccc21` [Compound 10, 3-(4-methylthiazol-5-yl)-2-phenyl-6-(3-phenylpropoxy)-1H-inden-1-one], the EC50 was found to be 350 µM in assay [1] and 5.6 µM at Aβ1-42.

Consider `Cc1ncsc1C1=C(c2cccs2)C(=O)c2cc(OCCCc3ccccc3)ccc21` [Compound 12, 3-(4-methylthiazol-5-yl)-6-(3-phenylpropoxy)-2-(thiophen-2-yl)-1H-inden-1-one], for which the EC50 in assay [1] came out at 154 µM; at Aβ1-42, 4.3 µM.

Take `Cc1ncsc1C1=C(c2cccnc2)C(=O)c2cc(OCCCc3ccncc3)ccc21` [Compound 13, 3-(4-methylthiazol-5-yl)-2-(pyridin-3-yl)-6-(3-(pyridin-4-yl)propoxy)-1H-inden-1-one]: the EC50 in assay [1] amounted to 1.5 µM; on Aβ1-42, 110 µM.

`Cc1ncsc1C1=C(c2cccnc2)C(=O)c2cc(OCCc3ccccc3)ccc21` [Compound 14, 3-(4-methylthiazol-5-yl)-6-phenethoxy-2-(pyridin-3-yl)-1H-inden-1-one]: the 50% effective concentration (EC50) in assay [1] is over 500 µM; on Aβ1-42, 177 µM.

In the case of `Cc1ncsc1C1=C(c2cccnc2)C(=O)c2cc(OCCCCc3ccccc3)ccc21` [Compound 15, 3-(4-methylthiazol-5-yl)-6-(4-phenylbutoxy)-2-(pyridin-3-yl)-1H-inden-1-one], the 50% effective concentration (EC50) in assay [1] was 59.8 µM; on Aβ1-42 it was 2.5 µM.

`Cc1ncsc1C1=C(c2cccnc2)C(=O)c2cc(OCOCc3ccccc3)ccc21` [Compound 16, 6-((benzyloxy)methoxy)-3-(4-methylthiazol-5-yl)-2-(pyridin-3-yl)-1H-inden-1-one]: the EC50 in assay [1] was 96.5 µM; on Aβ1-42 it was 12.5 µM.

Take `Cc1ncsc1C1=C(c2cccnc2)C(=O)c2cc(OCCOc3ccccc3)ccc21` [Compound 17, 3-(4-methylthiazol-5-yl)-6-(2-phenoxyethoxy)-2-(pyridin-3-yl)-1H-inden-1-one]: the EC50 was 19.2 µM in assay [1] and 5.7 µM on Aβ1-42.

Turning to `COc1ccc(C2=C(c3ncsc3C)c3ccc(OCCc4ccccc4)cc3C2=O)cc1` [Compound 18, 2-(4-methoxyphenyl)-3-(5-methylthiazol-4-yl)-6-phenethoxy-1H-inden-1-one], the EC50 in assay [1] was 242 µM; at Aβ1-42 it was 26.1 µM.

For the compound `COc1ccc(C2=C(c3ncsc3C)c3ccc(OCCCCc4ccccc4)cc3C2=O)cc1` [Compound 19, 2-(4-methoxyphenyl)-3-(5-methylthiazol-4-yl)-6-(4-phenylbutoxy)-1H-inden-1-one], the EC50 amounted to 338 µM in assay [1] and 11.6 µM on Aβ1-42.

For the compound `COc1ccc(C2=C(c3ncsc3C)c3ccc(OCOCc4ccccc4)cc3C2=O)cc1` [Compound 20, 6-((benzyloxy)methoxy)-2-(4-methoxyphenyl)-3-(5-methylthiazol-4-yl)-1H-inden-1-one], the EC50 amounted to 478 µM in assay [1] and 11.9 µM at Aβ1-42.

Consider `COc1ccc(OCCOc2ccc3c(c2)C(=O)C(c2ccc(F)cc2)=C3c2ncsc2C)cc1` [Compound 22, 2-(4-fluorophenyl)-6-(2-(4-methoxyphenoxy)ethoxy)-3-(5-methylthiazol-4-yl)-1H-inden-1-one], for which the EC50 in assay [1] turned out to be 60.3 µM; at Aβ1-42, 18.5 µM.

As for `COc1ccc(OCCOc2ccc3c(c2)C(=O)C(c2ccc(F)cc2)=C3c2ncsc2C)cc1OC` [Compound 23, 6-(2-(3,4-dimethoxyphenoxy)ethoxy)-2-(4-fluorophenyl)-3-(5-methylthiazol-4-yl)-1H-inden-1-one], the EC50 in assay [1] was 5.2 µM; at Aβ1-42 it was 4.1 µM.

Regarding `Cc1scnc1C1=C(c2ccc(F)cc2)C(=O)c2cc(OCCOc3ccc4c(c3)OCO4)ccc21` [Compound 24, 6-(2-(benzo[d][1,3]dioxol-5-yloxy)ethoxy)-2-(4-fluorophenyl)-3-(5-methylthiazol-4-yl)-1H-inden-1-one], the results for the EC50 (in assay [1]; at Aβ1-42) were over 500 µM and 99.6 µM, respectively.

Consider `Cc1scnc1C1=C(c2ccc(F)cc2)C(=O)c2cc(OCCOc3ccncc3)ccc21` [Compound 25, 2-(4-fluorophenyl)-3-(5-methylthiazol-4-yl)-6-(2-(pyridin-4-yloxy)ethoxy)-1H-inden-1-one], for which the results for the EC50 (in assay [1]; at Aβ1-42) were over 500 µM and 7.6 µM, respectively.

Turning to `Cc1scnc1C1=C(c2cncnc2)C(=O)c2cc(OCCOc3ccc(Cl)c(Cl)c3)ccc21` [Compound 26, 6-(2-(3,4-dichlorophenoxy)ethoxy)-3-(5-methylthiazol-4-yl)-2-(pyrimidin-5-yl)-1H-inden-1-one], the concentration for a half-maximal effect (EC50) came to 4.8 µM in assay [1] and 2.4 µM at Aβ1-42.

Take `Cc1scnc1C1=C(c2cncnc2)C(=O)c2cc(OCCOc3ccc(F)c(F)c3)ccc21` [Compound 27, 6-(2-(3,4-difluorophenoxy)ethoxy)-3-(5-methylthiazol-4-yl)-2-(pyrimidin-5-yl)-1H-inden-1-one]: the results for the EC50 (in assay [1]; at Aβ1-42) were over 500 µM and 237 µM, respectively.

In the case of `Cc1scnc1C1=C(c2cccs2)C(=O)c2cc(OCCc3ccccc3)ccc21` [Compound 28, 3-(5-methylthiazol-4-yl)-6-phenethoxy-2-(thiophen-2-yl)-1H-inden-1-one], the EC50 was found to be 310 µM in assay [1] and 8.3 µM on Aβ1-42.

As to `Cc1scnc1C1=C(c2cccs2)C(=O)c2cc(OCCCCc3ccccc3)ccc21` [Compound 29, 3-(5-methylthiazol-4-yl)-6-(4-phenylbutoxy)-2-(thiophen-2-yl)-1H-inden-1-one], the EC50 was over 500 µM in assay [1] and 7.5 µM at Aβ1-42.

On to `Cc1scnc1C1=C(c2cccs2)C(=O)c2cc(OCOCc3ccccc3)ccc21` [Compound 30, 6-((benzyloxy)methoxy)-3-(5-methylthiazol-4-yl)-2-(thiophen-2-yl)-1H-inden-1-one], for which the results for the EC50 (in assay [1]; at Aβ1-42) were 410 µM and 3.7 µM, respectively.

Turning to `Cc1scnc1C1=C(c2cccs2)C(=O)c2cc(OCCOc3ccccc3)ccc21` [Compound 31, 3-(5-methylthiazol-4-yl)-6-(2-phenoxyethoxy)-2-(thiophen-2-yl)-1H-inden-1-one], the EC50 came to 166 µM in assay [1] and 12.8 µM on Aβ1-42.
